Source: the supplement of paper PMC10307832

What was measured:
Assay in all cases: relative viability (nuclei count vs DMSO), 5 days (fraction); higher = more cells survive
NCI-H650 = system: NCI-H650
Method in brief: (§1)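 Lung cancer cell lines in 1536-well plates were dosed by pin tool the day after seeding, either with one drug alone or with a fixed anchor-drug dose plus five library-drug doses (not always all listed) in √10 steps. After 5 days, cells were fixed and their nuclei stained in one step (final 0.05% Triton X-100, 1% formaldehyde, 1 ug/ml Hoechst), then counted on 4× images. Relative viability is the nuclei count in treated wells divided by that in vehicle wells. Values are medians of duplicate plates.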

HCC-44 = system: HCC-44
Method in brief: as §1

SK-MES-1 = system: SK-MES-1
Method in brief: as §1

A-427 = system: A-427
Method in brief: as §1

NCI-H522 = system: NCI-H522
Method in brief: as §1

NCI-H1666 = system: NCI-H1666
Method in brief: as §1

NCI-H1975 = system: NCI-H1975
Method in brief: as §1

COR-L23 = system: COR-L23
Method in brief: as §1

HCC-827 = system: HCC-827
Method in brief: as §1

HCC-15 = system: HCC-15
Method in brief: as §1

NCI-H520 = system: NCI-H520
Method in brief: as §1

NCI-H596 = system: NCI-H596
Method in brief: as §1

`COc1cc(N2CCC(C(N)=O)CC2)ccc1Nc1nc(N)c(Cl)c(Nc2ccccc2S(=O)(=O)C(C)C)n1` [HG-5-88-01] + Nc1nc2[nH]cc(CCc3ccc(C(=O)N[C@@H](CCC(=O)O)C(=O)O)cc3)c2c(=O)[nH]1 [Pemetrexed] (partner 0.2 µM) was tested. Which relative viability (NCI-H650; first compound 0.04 µM) did it give?
The relative viability was 0.985.

And the relative viability (NCI-H650; first compound 0.1265 µM)?
Its relative viability is 0.91.

And the relative viability (NCI-H650; first compound 0.4 µM)?
The relative viability was 0.844.

And the relative viability (NCI-H650; first compound 1.265 µM)?
Its relative viability is 0.896.

What about the relative viability (NCI-H650; first compound 4 µM) of the same compound?
The relative viability was 0.476.

What about the relative viability (HCC-44; first compound 0.04 µM) of the same compound?
The relative viability was 0.596.

And the relative viability (HCC-44; first compound 0.1265 µM)?
Its relative viability is 0.662.

And the relative viability (HCC-44; first compound 0.4 µM)?
The relative viability was 0.538.

And the relative viability (HCC-44; first compound 1.265 µM)?
The relative viability was 0.699.

And the relative viability (HCC-44; first compound 4 µM)?
The relative viability was 0.69.

And the relative viability (SK-MES-1; first compound 0.04 µM)?
The relative viability was 0.922.

And the relative viability (SK-MES-1; first compound 0.1265 µM)?
The relative viability was 0.923.

And the relative viability (SK-MES-1; first compound 0.4 µM)?
The relative viability was 0.827.

And the relative viability (SK-MES-1; first compound 1.265 µM)?
The relative viability was 0.853.

What about the relative viability (SK-MES-1; first compound 4 µM) of the same compound?
The relative viability was 1.

And the relative viability (A-427; first compound 0.04 µM)?
The relative viability was 0.951.

And the relative viability (A-427; first compound 0.1265 µM)?
The relative viability was 1.01.

And the relative viability (A-427; first compound 0.4 µM)?
The relative viability was 1.

And the relative viability (A-427; first compound 1.265 µM)?
Its relative viability is 1.02.

What about the relative viability (A-427; first compound 4 µM) of the same compound?
The relative viability was 0.9.

And the relative viability (NCI-H522; first compound 0.04 µM)?
Its relative viability is 0.967.

What about the relative viability (NCI-H522; first compound 0.1265 µM) of the same compound?
Its relative viability is 0.969.

What about the relative viability (NCI-H522; first compound 0.4 µM) of the same compound?
The relative viability was 1.01.

What about the relative viability (NCI-H522; first compound 1.265 µM) of the same compound?
Its relative viability is 0.841.

And the relative viability (NCI-H522; first compound 4 µM)?
Its relative viability is 0.783.

And the relative viability (NCI-H1666; first compound 0.04 µM)?
Its relative viability is 0.893.

And the relative viability (NCI-H1666; first compound 0.1265 µM)?
The relative viability was 0.762.

And the relative viability (NCI-H1666; first compound 0.4 µM)?
Its relative viability is 0.828.

What about the relative viability (NCI-H1666; first compound 1.265 µM) of the same compound?
Its relative viability is 0.732.

What about the relative viability (NCI-H1666; first compound 4 µM) of the same compound?
The relative viability was 0.592.

And the relative viability (NCI-H1975; first compound 0.04 µM)?
Its relative viability is 0.27.

And the relative viability (NCI-H1975; first compound 0.1265 µM)?
Its relative viability is 0.296.

And the relative viability (NCI-H1975; first compound 0.4 µM)?
The relative viability was 0.273.

What about the relative viability (NCI-H1975; first compound 1.265 µM) of the same compound?
The relative viability was 0.297.

And the relative viability (NCI-H1975; first compound 4 µM)?
The relative viability was 0.203.

What about the relative viability (COR-L23; first compound 0.04 µM) of the same compound?
The relative viability was 0.196.

What about the relative viability (COR-L23; first compound 0.1265 µM) of the same compound?
The relative viability was 0.208.

What about the relative viability (COR-L23; first compound 0.4 µM) of the same compound?
The relative viability was 0.184.

And the relative viability (COR-L23; first compound 1.265 µM)?
Its relative viability is 0.199.

And the relative viability (COR-L23; first compound 4 µM)?
Its relative viability is 0.166.

And the relative viability (HCC-827; first compound 0.04 µM)?
The relative viability was 0.24.

What about the relative viability (HCC-827; first compound 0.1265 µM) of the same compound?
The relative viability was 0.262.

What about the relative viability (HCC-827; first compound 0.4 µM) of the same compound?
Its relative viability is 0.216.

And the relative viability (HCC-827; first compound 1.265 µM)?
Its relative viability is 0.141.

And the relative viability (HCC-827; first compound 4 µM)?
Its relative viability is 0.193.

What about the relative viability (HCC-15; first compound 0.04 µM) of the same compound?
Its relative viability is 0.209.

And the relative viability (HCC-15; first compound 0.1265 µM)?
The relative viability was 0.221.

And the relative viability (HCC-15; first compound 0.4 µM)?
The relative viability was 0.213.

And the relative viability (HCC-15; first compound 1.265 µM)?
The relative viability was 0.229.

What about the relative viability (HCC-15; first compound 4 µM) of the same compound?
Its relative viability is 0.185.

And the relative viability (NCI-H520; first compound 0.04 µM)?
Its relative viability is 0.604.

And the relative viability (NCI-H520; first compound 0.1265 µM)?
Its relative viability is 0.592.

What about the relative viability (NCI-H520; first compound 0.4 µM) of the same compound?
Its relative viability is 0.454.

And the relative viability (NCI-H520; first compound 1.265 µM)?
Its relative viability is 0.737.

And the relative viability (NCI-H520; first compound 4 µM)?
Its relative viability is 0.61.

What about the relative viability (NCI-H596; first compound 0.04 µM) of the same compound?
Its relative viability is 0.499.

And the relative viability (NCI-H596; first compound 0.1265 µM)?
Its relative viability is 0.548.

What about the relative viability (NCI-H596; first compound 0.4 µM) of the same compound?
The relative viability was 0.478.
